Reference: patent US10253076B2, “Peptides and combination of peptides for use in immunotherapy against ovarian cancer and other cancers” (immatics biotechnologies GmbH, priority 2015, dated 2019)

Assays:
CD8+ T cells = assay: In vitro immunogenicity: T-cell priming with aAPCs loaded with peptide/MHC and anti-CD28, pMHC multimer readout; format: cell-based, human; settings: for Wells positive [%]: HLA-A*02 restricted peptides; for wells: percentage of positive wells
Procedure: In an aspect, the peptides are pre-screened for immunogenicity before being included in the warehouse. By way of example, and not limitation, the immunogenicity of the peptides included in the warehouse is determined by a method comprising in vitro T-cell priming through repeated stimulations of CD8+ T cells from healthy donors with artificial antigen presenting cells loaded with peptide/MHC complexes and anti-CD28 antibody.
In order to obtain information regarding the immunogenicity of the TUMAPs of the present invention, the inventors performed investigations using an in vitro T-cell priming assay based on repeated stimulations of CD8+ T cells with artificial antigen presenting cells (aAPCs) loaded with peptide/MHC complexes and anti-CD28 antibody.
In order to perform in vitro stimulations by artificial antigen presenting cells loaded with peptide-MHC complex (pMHC) and anti-CD28 antibody, the inventors first isolated CD8+ T cells from fresh HLA-A*02 leukapheresis products via positive selection using CD8 microbeads (Miltenyi Biotec, Bergisch-Gladbach, Germany) of healthy donors obtained from the University clinics Mannheim, Germany, after informed consent.
PBMCs and isolated CD8+ lymphocytes were incubated in T-cell medium (TCM) until use consisting of RPMI-Glutamax (Invitrogen, Karlsruhe, Germany) supplemented with 10% heat inactivated human AB serum (PAN-Biotech, Aidenbach, Germany), 100 U/ml Penicillin/100 μg/ml Streptomycin (Cambrex, Cologne, Germany), 1 mM sodium pyruvate (CC Pro, Oberdorla, Germany), 20 μg/ml Gentamycin (Cambrex). 2.5 ng/ml IL-7 (PromoCell, Heidelberg, Germany) and 10 U/ml IL-2 (Novartis Pharma, Nürnberg, Germany) were also added to the TCM at this step.
Generation of pMHC/anti-CD28 coated beads, T-cell stimulations and readout was performed in a highly defined in vitro system using four different pMHC molecules per stimulation condition and 8 different pMHC molecules per readout condition.
The purified co-stimulatory mouse IgG2a anti human CD28 Ab 9.3 (Jung et al., 1987) was chemically biotinylated using Sulfo-N-hydroxysuccinimidobiotin as recommended by the manufacturer (Perbio, Bonn, Germany). Beads used were 5.6 μm diameter streptavidin coated polystyrene particles (Bangs Laboratories, Illinois, USA).
pMHC used for positive and negative control stimulations were A*0201/MLA-001 (peptide […] (SEQ ID NO. 664) from modified Melan-A/MART-1) and A*0201/DDX5-001 ([…] from DDX5, SEQ ID NO. 665), respectively.
800.000 beads/200 μl were coated in 96-well plates in the presence of 4×12.5 ng different biotin-pMHC, washed and 600 ng biotin anti-CD28 were added subsequently in a volume of 200 μl. Stimulations were initiated in 96-well plates by co-incubating […] CD8+ T cells with 2×10^5 washed coated beads in 200 μl TCM supplemented with 5 ng/ml IL-12 (PromoCell) for 3 days at 37° C. Half of the medium was then exchanged by fresh TCM supplemented with 80 U/ml IL-2 and incubating was continued for 4 days at 37° C. This stimulation cycle was performed for a total of three times. For the pMHC multimer readout using 8 different pMHC molecules per condition, a two-dimensional combinatorial coding approach was used as previously described (Andersen et al., 2012) with minor modifications encompassing coupling to 5 different fluorochromes. Finally, multimeric analyses were performed by staining the cells with Live/dead near IR dye (Invitrogen, Karlsruhe, Germany), CD8-FITC antibody clone SK1 (BD, Heidelberg, Germany) and fluorescent pMHC multimers. For analysis, a BD LSRII SORP cytometer equipped with appropriate lasers and filters was used. Peptide specific cells were calculated as percentage of total CD8+ cells. Evaluation of multimeric analysis was done using the FlowJo software (Tree Star, Oregon, USA). In vitro priming of specific multimer+ CD8+ lymphocytes was detected by comparing to negative control stimulations. […]

HLA-A*02:01 = HLA-A*02:01 (Homo sapiens, UniProt P04439, D140Y/D185E/D98H/E176V/E277Q/G131W/G231S/I119V/I121R/I166T/I218V/L300P/L318F/N151K/N90K/P208A/P217A/Q86G/Q94H/R138H/R169H/T345S); assay: MHC binding assay (UV-ligand exchange, beta2m ELISA, peptide exchange yield); settings: binding of HLA-class I restricted peptides to HLA-A*02:01, ranged by peptide exchange yield (UV-ligand exchange, β2m ELISA)
How it was run: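 Peptide–HLA-A*02:01 complexes made by UV-mediated exchange of a photocleavable peptide with the test peptide. Exchange products diluted 100-fold on streptavidin-coated plates, 1 h at 37°C, then HRP anti-β2m 1 h at 37°C; TMB read at 450 nm to give exchange yield.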

Row | Peptide exchange (HLA-A*02:01) | Substance | donors (CD8+ T cells; HLA class I peptides, percentage of positive donors) | Wells positive [%] (CD8+ T cells) | wells (CD8+ T cells; HLA class I peptides)
1 | ″+++″ (≥50% = +++) | 384 (ILFANPNIFV; listed as Homo sapiens) [compound 384] | – | ″+″ (<20% = +) | –
2 | ″+++″ (≥50% = +++) | 150 (RLWEEGEELEL; listed as Homo sapiens) [compound 150] | – | ″+″ (<20% = +) | –
3 | ″++++″ (≥75% = ++++) | 143 (LLLDITPEI; listed as Homo sapiens) [compound 143] | – | ″+″ (<20% = +) | –
4 | ″+++″ (≥50% = +++) | 166 (YLNHLEPPV; listed as Homo sapiens) [compound 166] | – | ″++++″ (> = 70% = ++++) | –
5 | ″+++″ (≥50% = +++) | 489 (KMWEELPEVV; listed as Homo sapiens) [compound 489] | – | ″+″ (<20% = +) | –
6 | ″++″ (≥20% = ++) | 499 (KIFDIDEAEEGV; listed as Homo sapiens) [compound 499] | – | ″+″ (<20% = +) | –
7 | ″+++″ (≥50% = +++) | 199 (ALQDVPLSSV; listed as Homo sapiens) [compound 199] | – | ″+″ (<20% = +) | –
8 | ″++++″ (≥75% = ++++) | 460 (AMLEKNYKL; listed as Homo sapiens) [compound 460] | – | ″+″ (<20% = +) | –
9 | ″+++″ (≥50% = +++) | 443 (GLWEIENNPTV; listed as Homo sapiens) [compound 443] | – | ″+″ (<20% = +) | –
10 | ″+++″ (≥50% = +++) | 283 (ALYIGDGYVIHLA; listed as Homo sapiens) [compound 283] | – | – | + (<20% = +)
11 | ″++″ (≥20% = ++) | 141 (YLDFSNNRL; listed as Homo sapiens) [compound 141] | – | ″+″ (<20% = +) | –
12 | ″++″ (≥20% = ++) | 319 (SLEPQIQPV; listed as Homo sapiens) [compound 319] | – | ″+″ (<20% = +) | –
13 | ″++″ (≥20% = ++) | 511 (FLDPYCSASV; listed as Homo sapiens) [compound 511] | – | ″+″ (<20% = +) | –
14 | ″+++″ (≥50% = +++) | 118 (KLIDNNINV; listed as Homo sapiens) [compound 118] | – | ″+″ (<20% = +) | –
15 | ″+++″ (≥50% = +++) | 247 (VLLPNDLLEKV; listed as Homo sapiens) [compound 247] | – | ″+″ (<20% = +) | –
16 | ″++″ (≥20% = ++) | 603 (FLIEPEHVNTV; listed as Homo sapiens) [compound 603] | – | ″+″ (<20% = +) | –

Second part, the substance before the results:

Row | Substance | Peptide exchange (HLA-A*02:01) | donors (CD8+ T cells; HLA class I peptides, percentage of positive donors) | Wells positive [%] (CD8+ T cells) | wells (CD8+ T cells; HLA class I peptides)
17 | 652 (TLWYRAPEV; listed as Homo sapiens) [compound 652] | – | ++++ (> = 70% = ++++) | – | –
18 | 11 (KIFEMLEGV; listed as Homo sapiens) [compound 11] | ″+++″ (≥50% = +++) | – | ″+″ (<20% = +) | –
19 | 663 (KIQEMQHFL; listed as Homo sapiens) [compound 663] | – | – | – | + (<20% = +)
20 | 662 (KIQEILTQV; listed as Homo sapiens) [compound 662] | – | – | – | + (<20% = +)
21 | 38 (FLLEDDIHVS; listed as Homo sapiens) [compound 38] | ″+++″ (≥50% = +++) | – | ″+″ (<20% = +) | –
22 | 659 (ILFPDIIARA; listed as Homo sapiens) [compound 659] | – | – | – | + (<20% = +)
23 | 79 (SLFIGEKAVLL; listed as Homo sapiens) [compound 79] | ″+++″ (≥50% = +++) | – | ″+″ (<20% = +) | –
24 | 113 (GLLPTPLFGV; listed as Homo sapiens) [compound 113] | ″+++″ (≥50% = +++) | – | ″+″ (<20% = +) | –
25 | 56 (KLYEGIPVLL; listed as Homo sapiens) [compound 56] | ″++++″ (≥75% = ++++) | – | ″+″ (<20% = +) | –
26 | 2 (SLLEADPFL; listed as Homo sapiens) [compound 2] | ″+++″ (≥50% = +++) | – | ″+″ (<20% = +) | –
27 | 3 (SLASKLTTL; listed as Homo sapiens) [compound 3] | ″++++″ (≥75% = ++++) | – | ″+″ (<20% = +) | –
28 | 36 (YVLEDLEVTV; listed as Homo sapiens) [compound 36] | ″++″ (≥20% = ++) | – | ″+″ (<20% = +) | –
29 | 60 (SLTIDGIYYV; listed as Homo sapiens) [compound 60] | ″++++″ (≥75% = ++++) | – | ″++++″ (> = 70% = ++++) | –
30 | 8 (FTLGNVVGMYL; listed as Homo sapiens) [compound 8] | ″++++″ (≥75% = ++++) | – | ″+″ (<20% = +) | –
31 | 48 (ALAELYEDEV; listed as Homo sapiens) [compound 48] | ″+++″ (≥50% = +++) | – | ″+″ (<20% = +) | –
